Species on record: Rattus norvegicus
Experiment: Open TG-GATES - Regimen: Single
Format: toxicity, organism-based, Sprague-Dawley
Design: regimen Single, gender Male, age 6 weeks
Conditions: in vivo, ip, 0 mg/kg, route intraperitoneal injection, dose 0 ug/Kg, dose level Control; for APTT / Bas / Eos / Fbg / Hb / Ht / Lym / MCH / MCHC / MCV / Mono / Neu / PT / Plat / RBC / Ret / WBC: tissue Blood; for KIDNEY_L / KIDNEY_R / KIDNEY_TOTAL: tissue Kidney; for LIVER: tissue Liver; for A/G / ALP / ALT / AST / BUN / CRE / Ca / Cl / DBIL / GLC / IP / K / LDH / Na / PL / RALB / TBIL / TC / TG / TP / gamma-GTP: tissue Plasma

Q: With `CC(=O)N[C@H]1[C@@H](O[C@@H]2O[C@H](CC(O)[C@H]3O[C@@H](n4ccc(=O)[nH]c4=O)[C@H](O)[C@@H]3O)[C@H](O)[C@H](O)[C@H]2NC(=O)/C=C/CC(C)C)O[C@H](CO)[C@@H](N)[C@@H]1O` (some centres not stated) [TUNICAMYCIN] as the molecule, how does the TERMINAL_BW (3 h) read?
A: 221.9 g

Q: What about the APTT (3 h) of the same molecule?
A: 21.5 s

Q: And the Bas (3 h)?
A: 0%

Q: What about the Eos (3 h) of the same molecule?
A: 0.5%

Q: What about the Fbg (3 h) of the same molecule?
A: 293.8 mg/dL

Q: And the Hb (3 h)?
A: 13 g/dL

Q: What about the Ht (3 h) of the same molecule?
A: 39.6%

Q: And the Lym (3 h)?
A: 77%

Q: What about the MCH (3 h) of the same molecule?
A: 21.1 pg

Q: What about the MCHC (3 h) of the same molecule?
A: 32.9%

Q: And the MCV (3 h)?
A: 64.1 fL

Q: What about the Mono (3 h) of the same molecule?
A: 2.8%

Q: And the Neu (3 h)?
A: 18.8%

Q: And the PT (3 h)?
A: 15.8 s

Q: What about the Plat (3 h) of the same molecule?
A: 103.5 x10_4/uL

Q: What about the RBC (3 h) of the same molecule?
A: 617.8 x10_4/ul

Q: What about the Ret (3 h) of the same molecule?
A: 8.1%

Q: And the WBC (3 h)?
A: 129.5 x10_2/uL

Q: And the KIDNEY_L (3 h)?
A: 1 g

Q: What about the KIDNEY_R (3 h) of the same molecule?
A: 1 g

Q: What about the KIDNEY_TOTAL (3 h) of the same molecule?
A: 2 g

Q: What about the LIVER (3 h) of the same molecule?
A: 10.3 g

Q: What about the A/G (3 h) of the same molecule?
A: 1.2

Q: What about the ALP (3 h) of the same molecule?
A: 1530.2 IU/L

Q: What about the ALT (3 h) of the same molecule?
A: 45 IU/L

Q: And the AST (3 h)?
A: 75 IU/L

Q: What about the BUN (3 h) of the same molecule?
A: 14 mg/dL

Q: What about the CRE (3 h) of the same molecule?
A: 0.2 mg/dL

Q: What about the Ca (3 h) of the same molecule?
A: 10.6 mg/dL

Q: And the Cl (3 h)?
A: 106.5 meq/L

Q: What about the DBIL (3 h) of the same molecule?
A: 0 mg/dL

Q: What about the GLC (3 h) of the same molecule?
A: 175.2 mg/dL

Q: What about the IP (3 h) of the same molecule?
A: 8.4 mg/dL

Q: What about the K (3 h) of the same molecule?
A: 4.4 meq/L

Q: And the LDH (3 h)?
A: 176.5 IU/L

Q: And the Na (3 h)?
A: 140.2 meq/L

Q: And the PL (3 h)?
A: 127.5 mg/dL

Q: And the RALB (3 h)?
A: 2.9 g/dL

Q: What about the TBIL (3 h) of the same molecule?
A: 0.0125 mg/dL

Q: And the TC (3 h)?
A: 71.8 mg/dL

Q: What about the TG (3 h) of the same molecule?
A: 72.5 mg/dL

Q: What about the TP (3 h) of the same molecule?
A: 5.3 g/dL

Q: What about the gamma-GTP (3 h) of the same molecule?
A: 1 IU/L

Q: What about the TERMINAL_BW (6 h) of the same molecule?
A: 222.7 g

Q: What about the APTT (6 h) of the same molecule?
A: 22.4 s

Q: And the Bas (6 h)?
A: 0%

Q: And the Eos (6 h)?
A: 0.4%

Q: And the Fbg (6 h)?
A: 306.8 mg/dL

Q: And the Hb (6 h)?
A: 13 g/dL

Q: And the Ht (6 h)?
A: 40.2%

Q: And the Lym (6 h)?
A: 75.2%

Q: And the MCH (6 h)?
A: 20.6 pg

Q: And the MCHC (6 h)?
A: 32.4%

Q: What about the MCV (6 h) of the same molecule?
A: 63.4 fL

Q: And the Mono (6 h)?
A: 2%

Q: What about the Neu (6 h) of the same molecule?
A: 22%

Q: What about the PT (6 h) of the same molecule?
A: 15.4 s

Q: What about the Plat (6 h) of the same molecule?
A: 114.6 x10_4/uL

Q: What about the RBC (6 h) of the same molecule?
A: 634.2 x10_4/ul

Q: What about the Ret (6 h) of the same molecule?
A: 7.9%

Q: And the WBC (6 h)?
A: 100.9 x10_2/uL

Q: And the KIDNEY_L (6 h)?
A: 1 g

Q: What about the KIDNEY_R (6 h) of the same molecule?
A: 1 g

Q: And the KIDNEY_TOTAL (6 h)?
A: 2 g

Q: And the LIVER (6 h)?
A: 10.1 g

Q: What about the A/G (6 h) of the same molecule?
A: 1.2

Q: And the ALP (6 h)?
A: 1339.6 IU/L

Q: And the ALT (6 h)?
A: 39.6 IU/L

Q: What about the AST (6 h) of the same molecule?
A: 68.6 IU/L

Q: What about the BUN (6 h) of the same molecule?
A: 11 mg/dL

Q: And the CRE (6 h)?
A: 0.1 mg/dL

Q: And the Ca (6 h)?
A: 10.9 mg/dL

Q: And the Cl (6 h)?
A: 104.8 meq/L

Q: What about the DBIL (6 h) of the same molecule?
A: 0 mg/dL

Q: What about the GLC (6 h) of the same molecule?
A: 186.8 mg/dL

Q: And the IP (6 h)?
A: 9.2 mg/dL

Q: And the K (6 h)?
A: 4.2 meq/L

Q: And the LDH (6 h)?
A: 142.8 IU/L

Q: What about the Na (6 h) of the same molecule?
A: 142.4 meq/L

Q: What about the PL (6 h) of the same molecule?
A: 133 mg/dL

Q: And the RALB (6 h)?
A: 2.9 g/dL

Q: What about the TBIL (6 h) of the same molecule?
A: 0.018 mg/dL

Q: And the TC (6 h)?
A: 74.2 mg/dL

Q: And the TG (6 h)?
A: 63.2 mg/dL

Q: What about the TP (6 h) of the same molecule?
A: 5.4 g/dL

Q: What about the gamma-GTP (6 h) of the same molecule?
A: 1.2 IU/L

Q: And the TERMINAL_BW (9 h)?
A: 216.2 g

Q: What about the APTT (9 h) of the same molecule?
A: 22.6 s

Q: What about the Bas (9 h) of the same molecule?
A: 0%

Q: What about the Eos (9 h) of the same molecule?
A: 0.6%

Q: And the Fbg (9 h)?
A: 299.2 mg/dL

Q: And the Hb (9 h)?
A: 13.1 g/dL

Q: What about the Ht (9 h) of the same molecule?
A: 40.6%

Q: And the Lym (9 h)?
A: 81.2%

Q: And the MCH (9 h)?
A: 20.3 pg

Q: And the MCHC (9 h)?
A: 32.2%

Q: And the MCV (9 h)?
A: 63 fL

Q: What about the Mono (9 h) of the same molecule?
A: 1.8%

Q: What about the Neu (9 h) of the same molecule?
A: 15.8%

Q: What about the PT (9 h) of the same molecule?
A: 15.7 s

Q: What about the Plat (9 h) of the same molecule?
A: 118.2 x10_4/uL

Q: And the RBC (9 h)?
A: 643.6 x10_4/ul

Q: And the Ret (9 h)?
A: 7.7%

Q: And the WBC (9 h)?
A: 98.9 x10_2/uL

Q: And the KIDNEY_L (9 h)?
A: 1 g

Q: And the KIDNEY_R (9 h)?
A: 1 g

Q: And the KIDNEY_TOTAL (9 h)?
A: 1.9 g

Q: And the LIVER (9 h)?
A: 8.6 g

Q: What about the A/G (9 h) of the same molecule?
A: 1.2

Q: And the ALP (9 h)?
A: 1451.4 IU/L

Q: What about the ALT (9 h) of the same molecule?
A: 37.6 IU/L

Q: What about the AST (9 h) of the same molecule?
A: 71 IU/L

Q: And the BUN (9 h)?
A: 11.2 mg/dL

Q: And the CRE (9 h)?
A: 0.1 mg/dL

Q: What about the Ca (9 h) of the same molecule?
A: 10.3 mg/dL

Q: And the Cl (9 h)?
A: 104.8 meq/L

Q: And the DBIL (9 h)?
A: 0 mg/dL

Q: And the GLC (9 h)?
A: 195.4 mg/dL

Q: And the IP (9 h)?
A: 9.6 mg/dL

Q: And the K (9 h)?
A: 4.2 meq/L

Q: And the LDH (9 h)?
A: 158.4 IU/L

Q: And the Na (9 h)?
A: 141.8 meq/L

Q: What about the PL (9 h) of the same molecule?
A: 128 mg/dL

Q: And the RALB (9 h)?
A: 2.8 g/dL

Q: What about the TBIL (9 h) of the same molecule?
A: 0.024 mg/dL

Q: And the TC (9 h)?
A: 74.2 mg/dL

Q: What about the TG (9 h) of the same molecule?
A: 54 mg/dL

Q: And the TP (9 h)?
A: 5.2 g/dL

Q: What about the gamma-GTP (9 h) of the same molecule?
A: 1 IU/L

Q: What about the TERMINAL_BW (24 h) of the same molecule?
A: 234.3 g

Q: What about the APTT (24 h) of the same molecule?
A: 21.6 s

Q: What about the Bas (24 h) of the same molecule?
A: 0%

Q: And the Eos (24 h)?
A: 1%

Q: And the Fbg (24 h)?
A: 295.2 mg/dL

Q: And the Hb (24 h)?
A: 12.7 g/dL

Q: What about the Ht (24 h) of the same molecule?
A: 39.1%

Q: What about the Lym (24 h) of the same molecule?
A: 78.6%

Q: What about the MCH (24 h) of the same molecule?
A: 20.2 pg

Q: And the MCHC (24 h)?
A: 32.4%

Q: What about the MCV (24 h) of the same molecule?
A: 62.4 fL

Q: And the Mono (24 h)?
A: 3.6%

Q: What about the Neu (24 h) of the same molecule?
A: 16.2%

Q: What about the PT (24 h) of the same molecule?
A: 16.2 s

Q: And the Plat (24 h)?
A: 119.3 x10_4/uL

Q: What about the RBC (24 h) of the same molecule?
A: 626.8 x10_4/ul

Q: And the Ret (24 h)?
A: 7.3%

Q: What about the WBC (24 h) of the same molecule?
A: 88.7 x10_2/uL

Q: And the KIDNEY_L (24 h)?
A: 1.1 g

Q: And the KIDNEY_R (24 h)?
A: 1.1 g

Q: What about the KIDNEY_TOTAL (24 h) of the same molecule?
A: 2.1 g

Q: And the LIVER (24 h)?
A: 10.8 g

Q: And the A/G (24 h)?
A: 1.2

Q: What about the ALP (24 h) of the same molecule?
A: 1584.8 IU/L

Q: What about the ALT (24 h) of the same molecule?
A: 42.2 IU/L

Q: And the AST (24 h)?
A: 71.2 IU/L

Q: What about the BUN (24 h) of the same molecule?
A: 16.6 mg/dL

Q: What about the CRE (24 h) of the same molecule?
A: 0.1 mg/dL

Q: And the Ca (24 h)?
A: 10.5 mg/dL

Q: And the Cl (24 h)?
A: 105.2 meq/L

Q: What about the DBIL (24 h) of the same molecule?
A: 0 mg/dL

Q: What about the GLC (24 h) of the same molecule?
A: 184.4 mg/dL

Q: And the IP (24 h)?
A: 6.8 mg/dL

Q: And the K (24 h)?
A: 4.6 meq/L

Q: And the LDH (24 h)?
A: 146.4 IU/L

Q: And the Na (24 h)?
A: 141.2 meq/L

Q: And the PL (24 h)?
A: 136 mg/dL

Q: What about the RALB (24 h) of the same molecule?
A: 3.1 g/dL

Q: And the TBIL (24 h)?
A: 0.008 mg/dL

Q: And the TC (24 h)?
A: 73.6 mg/dL

Q: And the TG (24 h)?
A: 70.8 mg/dL

Q: And the TP (24 h)?
A: 5.5 g/dL

Q: And the gamma-GTP (24 h)?
A: 1.8 IU/L
